Structures can show the parent of a compound that is named as a salt. Where two headings read alike, the source gives them in different places.
What was measured:
[1] = system: tetrabenazine-induced depression; assay: prevention of tetrabenazine-induced sedation and depression in mice (exploratory activity and ptosis); type: in vivo, Carworth CF1 S female mice; details: for ED50: Mus musculus, po; for ED50 Ptosis / ED50 Exploratory: 60 min
From the text: A standard procedure for detecting and comparing the antidepressant activity of compounds in this series for which there is good correlation with human efficacy is the prevention of tetrabenazine-induced sedation and depression in mice. (Everett, "The Dopa Response Potentiation Test and Its Use in Screening for Antidepressant Drugs", pp. 164-167 in "Antidepressant Drugs" [Proceedings of the First International Symposium], S. Garattini and M. N. G. Dukes, eds., 1967.).
Groups of 10 Carworth CF1 S female mice, 18-21 g. each, were fasted 1.5 hours and were intubated with antagonist compounds at oral doses of 0, 5, 25, and 125 mg/kg or 0, 1, 3, 9, 27, and 81 mg/kg in 0.20 ml. of 1% Methocel (methylcellulose) 1.25% Tween 80. The mice were challenged 30 minutes later with tetrabenazine (as the methane-sulfonate), 32 mg/kg intraperitoneally (dissolved in 0.20 ml. 0.05M KCl at pH 2.0). One hour after antagonist (30 minutes after tetrabenazine), the mice were examined for signs of exploratory activity and ptosis (eyelid closure). Normal exploratory activity (relief from sedation) was recorded when a mouse lifted by the tail from a group of 10 in a testing box and placed on a stainless steel testing box lid (12.5" × 8" with 0.33" mesh) either turned its head horizontally 30° in both direction or moved to the edge of the screen within 10 seconds after being placed on the screen. Relief from ptosis was recorded when exactly 2 seconds after placing the mouse facing the observer, lid closure was less than 50% in both eyes.
For comparison, the marketed antidepressant Amitriptyline was also tested, and an ED50 (effective dose in 50% of the cases) was determined. The lower the ED50, the better the antidepressant.

monoamine oxidase (MAO) = assay: tryptamine potentiation in mice (monoamine oxidase inhibition); type: in vivo
From the text: (§1) An antidepressant which acts by inhibiting MAO is not acceptable.

[2] = system: hexabarbitol potentiation; assay: hexabarbitol potentiation in mice (sedative qualities); type: in vivo
From the text: as §1

[3] = Table I, orally, 1 hour post-drug, tetrabenazine 32 mg/kg i.p. 30 min after drug, relief from ptosis
[4] = Table I, orally, 1 hour post-drug, tetrabenazine 32 mg/kg i.p. 30 min after drug, relief from sedation (exploratory activity)
[5] = Table II (formula II compounds), orally, 1 hour post-drug, relief from ptosis, read-out: ED50 Ptosis
[6] = Table II (formula II compounds), orally, 1 hour post-drug, relief from sedation (exploratory activity), read-out: ED50 Exploratory

| SMILES | ED50 Ptosis [1, 3] [mg/kg] | ED50 Exploratory [1, 4] [mg/kg] | ED50 [1, 5] [mg/kg] | ED50 [1, 6] [mg/kg] | also measured |
| --- | --- | --- | --- | --- | --- |
| CN(C)CCC=C1c2ccccc2CCc2ccccc21 [Amitriptylene . HCl, reference compound] | – | – | – | – | ED50 ([1]; Table I, orally, 1 hour post-drug, tetrabenazine 32 mg/kg i.p. 30 min after drug, relief from ptosis, read-out: ED50 Ptosis): 1.5 mg/kg; ED50 ([1]; Table I, orally, 1 hour post-drug, tetrabenazine 32 mg/kg i.p. 30 min after drug, relief from sedation (exploratory activity), read-out: ED50 Exploratory): 3.7 mg/kg |
| CN(C)CCCOC12c3ccccc3C3C(c4ccccc41)N32 (stereo not drawn) [CH2 CH2 CH2 N(CH3)2, 3-[(4b, 4c-Dihydro-8bH-azirino[2,1,3-cd]dibenzo[a,f]-pyrrolizin-8b-yl)oxy]propyl-N,N-dimethylamine] | – | – | – | – | ED50 ([1]; 1 h, read-out: ED50 Exploratory, Table I, orally, 1 hour post-drug, tetrabenazine 32 mg/kg i.p. 30 min after drug, relief from sedation (exploratory activity)): 67 mg/kg; ED50 ([1]; 1 h, read-out: ED50 Ptosis, Table I, orally, 1 hour post-drug, tetrabenazine 32 mg/kg i.p. 30 min after drug, relief from ptosis): 56 mg/kg |
| CN(C)CCOC12c3ccccc3C3C(c4ccccc41)N32 (stereo not drawn) [CH2 CH2 N(CH3)2 . Maleate, 2-[4b, 4c-Dihydro-8bH-azirino[2,1,3-cd]dibenzo[a,f]pyrrolizin-8b-yl)oxy]ethyl-N,N-dimethylamine Maleate] | 8 | 9 | – | – | – |
| CN(C)CCOC12NC(c3ccccc31)C(Cl)c1ccccc12 (stereo not drawn) [CH2 CH2 N(CH3)2 H Cl, 10,11-Dihydro-5,10-imino-5-[2-(N,N-dimethylamino)-ethoxy]-11-chloro-5H-dibenzo[a,d]cycloheptene] | – | – | 15 | 25 | – |
| CN(C)CCOC12NC(Cc3ccccc31)c1ccccc12 (stereo not drawn) [CH2 CH2 N(CH3)2 H H, 10,11-Dihydro-5,10-imino-5-[2-(N,N-dimethylamino)-ethoxy]-5H-dibenzo[a,d]cycloheptene] | – | – | 15 | 15 | – |
| CN(C)CCOC12c3ccccc3C3C(c4ccccc41)N32 (stereo not drawn) [CH2 CH2 N(CH3)2, 2-[(4b, 4c-Dihydro-8bH-azirino[2,1,3-cd]dibenzo[a,f]pyrrolizin-8b-yl)oxy]ethyl-N,N-dimethylamine] | 2 | 2 | – | – | monoamine oxidase (MAO) inhibition (monoamine oxidase (MAO); implied by lack of tryptamine potentiation in mice): not a monoamine oxidase (MAO) inhibitor; potentiation of tryptamine (monoamine oxidase (MAO); in mice): not to potentiate tryptamine in mice; sedative qualities ([2]; implied by hexabarbitol potentiation in mice, at high doses): sedative qualities at high doses; potentiation of hexabarbitol ([2]; in mice): potentiates hexabarbitol in mice |
| NCCOC12c3ccccc3C3C(c4ccccc41)N32 (stereo not drawn) [CH2 CH2 NH2 . Maleate] | 10.3 | 11.8 | – | – | – |
| NCCOC12c3ccccc3C3C(c4ccccc41)N32 (stereo not drawn) [CH2 CH2 NH2 . Tartate] | 2.7 | 3.3 | – | – | – |
| NCCOC12NC(c3ccccc31)C(Cl)c1ccccc12 (stereo not drawn) [CH2 CH2 NH2 H Cl, 10,11-Dihydro-5,10-imino-5-(2-aminoethoxy)-11-chloro-5H-dibenzo[a,d]cycloheptene] | – | – | 37 | 37 | – |
| NCCOC12c3ccccc3C3C(c4ccccc41)N32 (stereo not drawn) [CH2 CH2 NH2] | 1 | 2 | – | – | – |

— patent publication US4123546A, “Antidepressant compounds” (E. I. Du Pont de Nemours and Company, priority 1977, dated 1978)
